Data published in US4193997A, “Thieno[2,3-c] and [3,2-c]pyridines, process for their preparation and therapeutic applications thereof” (Parcor, priority 1977, dated 1980).

How the values were obtained:
[1] = system: Red blood cells; test: Anti-sludge in vitro, "curative" procedure (protamine sulfate agglomeration of red blood cells); type: cell-based, rats; conditions: 25 μg; for percent aggregates, size of agglomerates 4: reference tests 11; for percent aggregates, size of agglomerates 3: reference tests 15 or 16; for percent aggregates, size of agglomerates 2: reference tests 19; for percent aggregates, size of agglomerates 1: reference tests 33 (n°3, 4, 6) or 30 (n°11, 12, 17)
Method: (§1) Red blood cells of rats are washed three times and diluted to 1/250 concentration in physiological saline. In each of 5 tubes are placed 0.6 ml of this suspension and 0.2 ml physiological saline. Into each tube is then added, respectively, an amount of 0, 25, 50, 100 and 200 μg of the test derivative contained in 0.2 ml of solution. After incubation for one hour at 37° C., 0.2 ml of a solution containing 125 μg/ml protamine sulfate is added thereto, and the resulting material is further incubated for 0.5 hour at 37° C. The red blood cells of each tube are then examined with a Mallasez cell, and the percent free red blood cells (RBC) and the percent agglomerates formed by 2, 3, 4, 5 . . . RBC are noted.
The test was repeated according to a "curative" procedure. The red blood cells were first contacted with the protamine sulfate and, after incubation for 0.5 hour, 0.2 ml containing 25 μg of the test derivative were added thereto, after which the material was further incubated for one hour at 37° C.

[2] = system: collagen-induced blood-platelet aggregation; test: Collagen-induced blood-platelet aggregation after oral treatment of rats; type: in vivo, Wistar rats; conditions: Rattus norvegicus, 100 mg/kg oral, 3 hrs after treatment, collagen (bovine tendon extract), read-out: Percent inhibition of blood-platelet aggregation, Collagen
[3] = system: mouse; test: Antalgic action, mechanical stimulation method according to Haffner; type: in vivo; conditions: 100 mg/kg oral
Method: (a) Mechanical stimulation method according to Haffner (Deutsch. Wish., 1959, 55, 731-733). This method comprises placing a pressure forceps at the base of the tail of a mouse and recording the number of bites self-inflicted by the animal in its endeavour to remove the forceps. The decrease of the number of bites prior and subsequent to oral administration of the test compound at a dosage of 100 mg/kg provides a measure of the antalgic activity of the derivatives of this invention.

[4] = system: ovalbumin-induced systemic edema; test: Ovalbumin-induced systemic edema method; type: in vivo; conditions: rats, 100 mg/kg oral one hour before and with ovalbumin
Method: Rats are administered a simultaneous intraperitoneal injection of 1 ml ovalbumin and 0.5 ml of a 1% aqueous Evans Blue solution. The animals of the treated group are additionally orally administered 100 mg/kg of the test derivative, one hour prior to ovalbumin administration and then simultaneously with said ovalbumin administration. The intensity of the phenomenon thus induced is rated according to a scale from 1 to 5, according to the progress of the inflammatory syndrome. The determinations are effected after 2 hours and after 3 hours. Thus are determined the mean intensity of the edema and the percent decrease of the edema reaction.

[5] = system: mice; test: Antalgic action, acetic acid method according to Koster, Anderson & de Beer; type: in vivo; conditions: 100 mg/kg oral, 30 minutes prior to i.p. acetic acid
Description: (b) Acetic acid method, according to Koster, Anderson & de Beer (Fed. Proced., 18, 1959, 412, 1, 626)
Intraperitoneal injection of a dilute acetic acid solution induces, in mice, characteristic writhing movements which are repeated due to the effect of pain.

[6] = system: A.D.P.-induced blood-platelet aggregation; test: A.D.P.-induced blood-platelet aggregation after oral treatment of rats; type: in vivo, Wistar rats; conditions: Rattus norvegicus, 100 mg/kg oral, 3 hrs after treatment, 10 μM A.D.P. solution, read-out: Percent inhibition of blood-platelet aggregation, A.D.P.
[7] = system: Red blood cells; test: Anti-sludge in vitro, "preventive" treatment (protamine sulfate agglomeration of red blood cells); type: cell-based, rats; conditions: for percent agglomerates formed by 5 RBC: controls 6 or 8; for percent agglomerates formed by 4 RBC: controls 9 or 8; for percent agglomerates formed by 3 RBC: controls 13 or 14; for percent agglomerates formed by 2 RBC: controls 17 or 16; for percent free red blood cells (size 1): controls 32 (n°3, 4, 6) or 30 (n°11, 12, 17)
Method: as §1

[8] = system: carrageenin-induced edema; test: Localized carrageenin-induced edema method; type: in vivo; conditions: rats, 100 mg/kg oral one hour before, with, and 1 and 2.5 hours after carrageenin
Method: 0.1 ml of a 1% carrageenin solution is injected at time O in the metatarsal flexor muscles of the right hind limb of rats.
The animals of the treated group are additionally orally administered 100 mg/kg of the test derivative, respectively one hour prior to, and then simultaneously with the phlogogenic agent, and then one hour and 2.5 hours thereafter. The determinations effected with a ROCH micrometer at times 0, 1 hr, 2 hrs, 3 hrs and 5 hrs after carrageenin administration make it possible to determine the percent anti-inflammatory activity, as a function of time.

| Compound | percent aggregates, size of agglomerates 4 [1] [%] | percent aggregates, size of agglomerates 3 [1] [%] | percent aggregates, size of agglomerates 2 [1] [%] | percent aggregates, size of agglomerates 1 [1] [%] | inhibition at 100 mg/kg [2] [%] | mean percent antalgia after 30 min. [3] [%] | mean percent antalgia after 1 hr [3] [%] | mean percent antalgia after 2 hrs [3] [%] | mean percent antalgia after 3 hrs [3] [%] | Percent decrease of the edema reaction After 2 hours [4] [%] | Percent decrease of the edema reaction After 3 hours [4] [%] | percent antalgia [5] [%] | inhibition at 100 mg/kg [6] [%] | percent agglomerates formed by 5 RBC ([7]; 25 μg per tube) [%] | percent agglomerates formed by 4 RBC ([7]; 25 μg per tube) [%] | percent agglomerates formed by 3 RBC ([7]; 25 μg per tube) [%] | percent agglomerates formed by 2 RBC ([7]; 25 μg per tube) [%] | percent free red blood cells (size 1) ([7]; 25 μg per tube) [%] | percent agglomerates formed by 5 RBC ([7]; 50 μg per tube) [%] | percent agglomerates formed by 4 RBC ([7]; 50 μg per tube) [%] | also measured |
| --- | --- | --- | --- | --- | --- | --- | --- | --- | --- | --- | --- | --- | --- | --- | --- | --- | --- | --- | --- | --- | --- |
| O=C1NCCc2ccsc21 [Derivative n°12, 7-Oxo-4,5,6,7-tetrahydro-thieno[2,3-c]pyridine] | 1 | 3 | 14 | 82 | 90.6 | 81 | 78 | 73 | 67 | 53 | 64 | 77 | 62.7 | 1 | 2 | 15 | 21 | 61 | 2 | 2 | percent agglomerates formed by 3 RBC ([7]; 50 μg per tube): 12%; percent agglomerates formed by 2 RBC ([7]; 50 μg per tube): 20%; percent free red blood cells (size 1) ([7]; 50 μg per tube): 64%; percent agglomerates formed by 4 RBC ([7]; 100 μg per tube): 2%; percent agglomerates formed by 3 RBC ([7]; 100 μg per tube): 2%; percent agglomerates formed by 2 RBC ([7]; 100 μg per tube): 18%; percent free red blood cells (size 1) ([7]; 100 μg per tube): 78%; percent agglomerates formed by 4 RBC ([7]; 200 μg per tube): 1%; percent agglomerates formed by 3 RBC ([7]; 200 μg per tube): 1%; percent agglomerates formed by 2 RBC ([7]; 200 μg per tube): 9%; percent free red blood cells (size 1) ([7]; 200 μg per tube): 89%; Percent anti-inflammatory activity after 1 hour [8]: 42%; Percent anti-inflammatory activity after 2 hours [8]: 54%; Percent anti-inflammatory activity After 3 hours [8]: 61% |
| CC(=O)N1CC(c2ccccc2)c2ccsc2C1=O (stereo not shown) [Derivative n°17, 4-Phenyl-6-acetyl-7-oxo-4,5,6,7-tetrahydro-thieno[2,3-c]-pyridine] | 1 | 2 | 16 | 80 | 91.7 | 70 | 65 | 60 | 55 | 46 | 58 | 68 | 61.3 | 3 | 3 | 13 | 23 | 58 | 1 | 2 | percent aggregates, size of agglomerates 5 ([1]; reference tests 8 or 9): 1%; percent agglomerates formed by 3 RBC ([7]; 50 μg per tube): 4%; percent agglomerates formed by 2 RBC ([7]; 50 μg per tube): 28%; percent free red blood cells (size 1) ([7]; 50 μg per tube): 65%; percent agglomerates formed by 5 RBC ([7]; 100 μg per tube): 1%; percent agglomerates formed by 4 RBC ([7]; 100 μg per tube): 1%; percent agglomerates formed by 3 RBC ([7]; 100 μg per tube): 4%; percent agglomerates formed by 2 RBC ([7]; 100 μg per tube): 14%; percent free red blood cells (size 1) ([7]; 100 μg per tube): 80%; percent agglomerates formed by 4 RBC ([7]; 200 μg per tube): 1%; percent agglomerates formed by 3 RBC ([7]; 200 μg per tube): 2%; percent agglomerates formed by 2 RBC ([7]; 200 μg per tube): 9%; percent free red blood cells (size 1) ([7]; 200 μg per tube): 88%; Percent anti-inflammatory activity after 1 hour [8]: 37%; Percent anti-inflammatory activity after 2 hours [8]: 49%; Percent anti-inflammatory activity After 3 hours [8]: 54% |
